# Laboratory results taken from patent publication US7803757B2, “Peptides based on the sequence of human lactoferrin and their use” (PharmaSurgics in Sweden AB, priority 1998, dated 2010).
# Like-named read-outs stand apart in the source and are kept apart here. Bridge positions count the residues as written; N and C are the ends. Ends that are not written are not given here. * marks the point of attachment. Acm = CC(=O)NC*
# What was measured:
# Type in all cases: cell-based
# [1] = system: C. albicans yeast cells (ATCC64549); assay: killing and growth inhibition of C. albicans at pH 4.5 (Example 11); set-up: key to C. albicans inhibition (OD650): + = no increase in OD650 is seen; − = OD650 continues to increase; conditions: pH 4.5, 1% BHI, 25 μg/ml of the peptide; for C. albicans inhibition (OD650): OD650 after an additional 18 hours; for C. albicans killing: 99% / C. albicans killing: 100%: 2 hours
# Experimental: C. albicans yeast cells (ATCC64549) were incubated for 2 hours at pH 4.5 in BHI medium diluted to 1% of the original concentration containing 25 µg/ml of the peptide. Thereafter the fungal solutions were cultured on blood agar plates. OD650 was measured after incubation during an additional 18 hours. The fungicidal effect of the peptides on C. albicans was determined as the ability of the peptide to kill 100% and 99%, respectively, of the fungus, while the growth inhibitory effect was determined by measuring the OD650. An inhibitory effect existed when no increase in OD650 was recorded.
# K. pneumoniae = assay: killing of bacteria at fixed peptide concentration, K. pneumoniae (Example 12); conditions: peptide 25 μg/ml
# Experimental: (§1) In this example, the peptides according to the invention were used to study the effect on the killing of different bacteria.
# (§2) The peptides were used at a concentration of 25 μg/ml.
# S. aureus = assay: killing of bacteria at fixed peptide concentration, S. aureus (Example 12); conditions: peptide 25 μg/ml
# Experimental: as §1, §2
# P. aeruginosa = assay: killing of bacteria at fixed peptide concentration, P. aeruginosa (Example 12); conditions: peptide 25 μg/ml
# Experimental: as §1, §2
# S. epidermis = assay: killing of bacteria at fixed peptide concentration, S. epidermis (Example 12); conditions: peptide 25 μg/ml
# Experimental: as §1, §2
# C. albicans (ATCC64549) = system: C. albicans (ATCC64549)
# Experimental: (§3) In the examples, the minimal microbicidal concentrations (MMC) and minimal inhibitory concentrations (MIC) were determined as follows, unless otherwise specified in the examples. Bacterial or fungal strains were cultured in BHI medium over night at 37° C. A volume of the culture was transferred to a new tube with BHI and incubated for two more hours. Thereafter the cells were spun down and the pellet was suspended in BHI medium diluted 1/100 (1% BHI). The concentration of bacterial or fungal cells was spectrophotometrically determined at 650 nm. The microbial concentrations were also determined by viable counts. Peptides serially diluted in 1% BHI by twofold or tenfold steps were added in triplicate to the wells of a microtiterplate (200 μl per well). The bacterial or fungal cell solutions were added in 10 μl volumes to give a final concentration of approximately 1-5×10^5 cells per ml in the well. The microplate was incubated at 37° C. in a humid chamber for two hours. Thereafter 5 μl was taken from each well and added as a drop onto a blood agar plate and incubated over night at 37° C. The microplate was incubated for another 20 hours at 37° C. and thereafter analysed spectrophotometrically at 650 nm in a microplate reader (Emax, Molecular Devices, USA). The concentration of peptide causing a 99% reduction of the inoculum after 2 hours of incubation was defined as the MMC99%. The MIC value was defined as the concentration giving no increase in the absorbance value above the background level after 20 hours of incubation.
# (§4) C. albicans (ATCC64549) and E. coli O6, respectively, were incubated with the different peptides. The experiments were performed with 1, 10, 25 and 100 μg/ml of peptide.
# E. coli O6 = system: E. coli O6
# Experimental: as §3, §4
# E. faecalis = assay: killing of bacteria at fixed peptide concentration, E. faecalis (Example 12); conditions: peptide 25 μg/ml
# Experimental: as §1, §2
# E. coli O14 = assay: bactericidal and growth inhibitory activity, E. coli O14 (Example 9); conditions: for Concentration of agent for 100% killing: E. coli O14, 2 hours; for Concentration of agent for inhibition of growth: E. coli O14, spectrophotometrically after 20 hours
# Experimental: E. coli O14 was incubated as described above in the presence of the peptides during 2 hours. The bactericidal activity was measured in the same way as described above.
# The inhibition of growth was measured spectrophotometrically after incubation during 20 hours.
# [2] = system: Candida albicans ATCC 64549; assay: fungicidal and growth inhibitory activity, Candida albicans ATCC 64549 (Example 8); conditions: for Concentration of agent for 100% killing: C. albicans ATCC 64549 1·10^5/ml, 2 hours 37° C., diluted BHI; for Concentration of agent for inhibition of growth: C. albicans ATCC 64549, spectrophotometrically after 20 hours
# Experimental: Candida albicans ATCC 64549 (1·10^5/ml) was incubated in the presence of the peptides during 2 hours at 37° C. in diluted growth medium (BHI, twofold serial dilutions starting with 50 μg/ml). The fungicidal activity was measured by culturing 5 μl from each incubation well on Saboroud agar plates.
# The inhibition of growth was measured spectrophotometrically after 20 hours of incubation.
# E. coli O6K5 = assay: microbicidal activity MMC99%, E. coli O6K5 (Example 28); conditions: E. coli O6K5 (Table 24)
# Experimental: as §3
# (§5) In this example the microbicidal activity of eight of the peptides according to the invention was studied, and tested against E. coli O6K5 and C. albicans.
# (§6) The concentration of each peptide needed to kill 99% of the microorganisms (MMC99%) was determined.
# C. albicans = assay: microbicidal activity MMC99%, C. albicans (Example 28); conditions: C. albicans (Table 24)
# Experimental: as §3, §5, §6
# [3] = C. albicans, tested at 1, 10, 25 and 100 μg/ml of peptide
# [4] = E. coli O6, tested at 1, 10, 25 and 100 μg/ml of peptide
substance,measurement,setting,value
Ac-TKCFQWQRNMRKVR-NH2 [Peptide 51],C. albicans inhibition (OD650),[1],+
same,C. albicans killing: 99%,[1],+ (+ = 100/99% of the bacteria are killed)
same,C. albicans killing: 100%,[1],+ (+ = 100/99% of the bacteria are killed)
same,killing of bacteria: K. pneumoniae,K. pneumoniae,+ (+ = 99% of the bacteria are killed)
same,killing of bacteria: S. aureus,S. aureus,+ (+ = 99% of the bacteria are killed)
same,killing of bacteria: P. aeruginosa,P. aeruginosa,+ (+ = 99% of the bacteria are killed)
same,killing of bacteria: S. epidermis,S. epidermis,+ (+ = 99% of the bacteria are killed)
same,MIC,C. albicans (ATCC64549); ATCC64549,10 µg/mL
same,MMC99%,C. albicans (ATCC64549); [3],10 µg/mL
same,MMC99%,E. coli O6; [4],10 µg/mL
same,MIC,E. coli O6; O6,10 µg/mL
same,killing of bacteria: E. faecalis,E. faecalis,+ (+ = 99% of the bacteria are killed)
EATKCFQWQRNMRKVR [Peptide 64],C. albicans inhibition (OD650),[1],+
same,C. albicans killing: 99%,[1],+ (+ = 100/99% of the bacteria are killed)
same,C. albicans killing: 100%,[1],− (− = less than 100/99% of the bacteria are killed)
same,killing of bacteria: K. pneumoniae,K. pneumoniae,− (− = less than 99% of the bacteria are killed)
same,killing of bacteria: S. aureus,S. aureus,+ (+ = 99% of the bacteria are killed)
same,killing of bacteria: P. aeruginosa,P. aeruginosa,− (− = less than 99% of the bacteria are killed)
same,killing of bacteria: S. epidermis,S. epidermis,+ (+ = 99% of the bacteria are killed)
same,MIC,C. albicans (ATCC64549); ATCC64549,10 µg/mL
same,MMC99%,C. albicans (ATCC64549); [3],25 µg/mL
same,MMC99%,E. coli O6; [4],10 µg/mL
same,MIC,E. coli O6; O6,10 µg/mL
same,killing of bacteria: E. faecalis,E. faecalis,+ (+ = 99% of the bacteria are killed)
FQWQRNMRKVR [Peptide 44],C. albicans inhibition (OD650),[1],−
same,C. albicans killing: 99%,[1],− (− = less than 100/99% of the bacteria are killed)
same,C. albicans killing: 100%,[1],− (− = less than 100/99% of the bacteria are killed)
same,killing of bacteria: K. pneumoniae,K. pneumoniae,− (− = less than 99% of the bacteria are killed)
same,killing of bacteria: S. aureus,S. aureus,+ (+ = 99% of the bacteria are killed)
same,killing of bacteria: P. aeruginosa,P. aeruginosa,− (− = less than 99% of the bacteria are killed)
same,killing of bacteria: S. epidermis,S. epidermis,+ (+ = 99% of the bacteria are killed)
same,MIC,C. albicans (ATCC64549); ATCC64549,10 µg/mL
same,MMC99%,C. albicans (ATCC64549); [3],10 µg/mL
same,MMC99%,E. coli O6; [4],10 µg/mL
same,MIC,E. coli O6; O6,10 µg/mL
same,killing of bacteria: E. faecalis,E. faecalis,+ (+ = 99% of the bacteria are killed)
"KCFQWQRNMRKVRGPPVSCI [Morinaga 24] (KCFQWQRNMRKVRGPPVSCI; also: cyclic peptide, ring type not given here) [reference compound]",Concentration of agent for 100% killing,E. coli O14,25 µg/mL
same,Concentration of agent for inhibition of growth,E. coli O14,6.2 µg/mL
same,Concentration of agent for 100% killing,[2],12.5 µg/mL
same,Concentration of agent for inhibition of growth,[2],12.5 µg/mL
KCFQWQRNMRKVRGPPVSCI [Morinaga 25] (KCFQWQRNMRKVRGPPVSCI) [reference compound],Concentration of agent for 100% killing,E. coli O14,12.5 µg/mL
same,Concentration of agent for inhibition of growth,E. coli O14,3.1 µg/mL
same,Concentration of agent for 100% killing,[2],6.2 µg/mL
same,Concentration of agent for inhibition of growth,[2],6.2 µg/mL
"Peptide 2: SEQ. ID. NO. 1 with X1 E, X2 A, X5 C, X7 Q, X11 N, X17-25 G-P-P-V-S-C-I-K-R; cysteines acetamidomethyl protected (Ac-EATKC(Acm)FQWQRNMRKVRGPPVSC(Acm)IKR-NH2)",Concentration of agent for 100% killing,E. coli O14,25 µg/mL
same,Concentration of agent for inhibition of growth,E. coli O14,6.2 µg/mL
same,Concentration of agent for 100% killing,[2],6.2 µg/mL
same,Concentration of agent for inhibition of growth,[2],6.2 µg/mL
"Peptide 57: 14 amino acids, modified positions 18-31 of human lactoferrin; sequence only in sequence listing (TKKFQWQRNMRKVR)",C. albicans inhibition (OD650),[1],+
same,C. albicans killing: 99%,[1],+ (+ = 100/99% of the bacteria are killed)
same,C. albicans killing: 100%,[1],+ (+ = 100/99% of the bacteria are killed)
same,killing of bacteria: K. pneumoniae,K. pneumoniae,+ (+ = 99% of the bacteria are killed)
same,killing of bacteria: S. aureus,S. aureus,+ (+ = 99% of the bacteria are killed)
same,killing of bacteria: P. aeruginosa,P. aeruginosa,+ (+ = 99% of the bacteria are killed)
same,killing of bacteria: S. epidermis,S. epidermis,+ (+ = 99% of the bacteria are killed)
same,MIC,C. albicans (ATCC64549); [3],10 µg/mL
same,MMC99%,C. albicans (ATCC64549); [3],25 µg/mL
same,MIC,E. coli O6; [4],10 µg/mL
same,MMC99%,E. coli O6; [4],10 µg/mL
same,killing of bacteria: E. faecalis,E. faecalis,+ (+ = 99% of the bacteria are killed)
QPEATKCFQWQRNMRKVR [Peptide 33],C. albicans inhibition (OD650),[1],−
same,C. albicans killing: 99%,[1],− (− = less than 100/99% of the bacteria are killed)
same,C. albicans killing: 100%,[1],− (− = less than 100/99% of the bacteria are killed)
same,killing of bacteria: K. pneumoniae,K. pneumoniae,− (− = less than 99% of the bacteria are killed)
same,killing of bacteria: S. aureus,S. aureus,+ (+ = 99% of the bacteria are killed)
same,killing of bacteria: P. aeruginosa,P. aeruginosa,− (− = less than 99% of the bacteria are killed)
same,killing of bacteria: S. epidermis,S. epidermis,+ (+ = 99% of the bacteria are killed)
same,MIC,C. albicans (ATCC64549); ATCC64549,10 µg/mL
same,MMC99%,C. albicans (ATCC64549); [3],100 µg/mL
same,MMC99%,E. coli O6; [4],25 µg/mL
same,MIC,E. coli O6; O6,10 µg/mL
same,killing of bacteria: E. faecalis,E. faecalis,+ (+ = 99% of the bacteria are killed)
QWQRNMRKVR [Peptide 40],C. albicans inhibition (OD650),[1],−
same,C. albicans killing: 99%,[1],− (− = less than 100/99% of the bacteria are killed)
same,C. albicans killing: 100%,[1],− (− = less than 100/99% of the bacteria are killed)
same,killing of bacteria: K. pneumoniae,K. pneumoniae,− (− = less than 99% of the bacteria are killed)
same,killing of bacteria: S. aureus,S. aureus,− (− = less than 99% of the bacteria are killed)
same,killing of bacteria: P. aeruginosa,P. aeruginosa,− (− = less than 99% of the bacteria are killed)
same,killing of bacteria: S. epidermis,S. epidermis,+ (+ = 99% of the bacteria are killed)
same,MIC,C. albicans (ATCC64549); ATCC64549,25 µg/mL
same,MMC99%,C. albicans (ATCC64549); [3],25 µg/mL
same,MMC99%,E. coli O6; [4],>25 µg/mL
same,MIC,E. coli O6; O6,>25 µg/mL
same,killing of bacteria: E. faecalis,E. faecalis,− (− = less than 99% of the bacteria are killed)
SEQ. ID. NO. 55: modification of SEQ. ID. NO. 7 wherein the Asp in position 9 is substituted with a Glu (TKAFKWQREMRKVR; lactam 5-9),MMC99%,E. coli O6K5,5
same,MMC99%,C. albicans,5
TKCFQWQRNMRKVR [Peptide 50],C. albicans inhibition (OD650),[1],+
same,C. albicans killing: 99%,[1],+ (+ = 100/99% of the bacteria are killed)
same,C. albicans killing: 100%,[1],+ (+ = 100/99% of the bacteria are killed)
same,killing of bacteria: K. pneumoniae,K. pneumoniae,+ (+ = 99% of the bacteria are killed)
same,killing of bacteria: S. aureus,S. aureus,+ (+ = 99% of the bacteria are killed)
same,killing of bacteria: P. aeruginosa,P. aeruginosa,+ (+ = 99% of the bacteria are killed)
same,killing of bacteria: S. epidermis,S. epidermis,+ (+ = 99% of the bacteria are killed)
same,MIC,C. albicans (ATCC64549); ATCC64549,10 µg/mL
same,MMC99%,C. albicans (ATCC64549); [3],10 µg/mL
same,MMC99%,E. coli O6; [4],10 µg/mL
same,MIC,E. coli O6; O6,10 µg/mL
same,killing of bacteria: E. faecalis,E. faecalis,+ (+ = 99% of the bacteria are killed)
